Experimental data published in ChEMBL document CHEMBL1240305, “Alkylation of duplex DNA in nucleosome core particles by duocarmycin SA and yatakemycin” (Nat Chem Biol, 2006).
Active and inactive are the calls of the source. The rule behind the calls is not given here.

How the values were obtained:
Type in all cases: nucleic-acid assay
Nucleic Acid [1] = assay: Induction of thermal cleavage in protein free alpha satellite DNA 5'-GGAAAC-3' at 10 uM at 25 degC after 17 hrs by non-denaturating gel electrophoresis
Nucleic Acid [2] = assay: Induction of thermal cleavage in alpha satellite DNA 5'-GAAACT-3' in […] at 10 uM at 25 degC after 17 hrs by non-denaturating gel electrophoresis
Nucleic Acid [3] = assay: Induction of thermal cleavage in protein free alpha satellite DNA 5'-GAAACT-3' at 10 uM at 25 degC after 17 hrs by non-denaturating gel electrophoresis
Nucleic Acid [4] = assay: Binding affinity to alpha satellite DNA assessed as neucleosome reconstitution after 17 hrs at 25 degC by non-denaturating gel electrophoresis
Nucleic Acid [5] = assay: Induction of thermal cleavage in alpha satellite DNA 5'-GGAAAC-3' in […] at 10 uM at 25 degC after 17 hrs by non-denaturating gel electrophoresis
Nucleic Acid [6] = assay: Induction of DNA alkylation-mediated […] at 25 degC after 16 hrs by non-denaturating gel electrophoresis
Nucleic Acid [7] = assay: Induction of thermal cleavage in protein free alpha satellite DNA 5'-CAAAAG-3' at 10 uM at 25 degC after 1 hr by non-denaturating gel electrophoresis
Nucleic Acid [8] = assay: Induction of thermal cleavage in alpha satellite DNA 5'-CAAAAG-3' in […] at 10 uM at 25 degC after 17 hrs by non-denaturating gel electrophoresis
Nucleic Acid [9] = assay: Induction of thermal cleavage in alpha satellite DNA at 10 uM at 25 degC after 30 mins by non-denaturating gel electrophoresis
Nucleic Acid [10] = assay: Induction of thermal cleavage in alpha satellite DNA at 10 uM at 25 degC after 1 hr by non-denaturating gel electrophoresis

Row | SMILES | Activity (Nucleic Acid [1]) | Activity (Nucleic Acid [2]) | Activity (Nucleic Acid [3]) | Activity (Nucleic Acid [4]) | Activity (Nucleic Acid [5]) | Activity (Nucleic Acid [6]) | Activity (Nucleic Acid [7]) | Activity (Nucleic Acid [8]) | Activity (Nucleic Acid [9]) | Activity (Nucleic Acid [10])
1 | COc1cc2[nH]c(C(=O)N3C[C@@H]4C[C@]45C3=CC(=O)c3[nH]c(C(=O)N4CCc6c4c(O)c(OC)c4[nH]c(C(=O)SC)cc64)cc35)cc2cc1O | Active | Active | Active | Active |  |  |  |  |  | 
2 | COc1cc2[nH]c(C(=O)N3C[C@H]4C[C@@]45C3=CC(=O)c3[nH]c(C(=O)N4CCc6c4c(O)c(OC)c4[nH]c(C(=O)SC)cc64)cc35)cc2cc1O | Active |  |  | Active | Active | Active | Active | Active |  | 
3 | COC(=O)c1cc2c([nH]1)C(=O)C=C1N(C(=O)c3cc4cc(OC)c(OC)c(OC)c4[nH]3)C[C@H]3C[C@]123 | Active |  |  | Active |  |  |  |  | 1 ×10⁻⁵ M | Active
